Experimental data taken from paper PMC10872342, “9S1R nullomer peptide induces mitochondrial pathology, metabolic suppression, and enhanced immune cell infiltration, in triple-negative breast cancer mouse model” (Biomedicine & pharmacotherapy = Biomedecine & …, 2023).
Entries after “also recorded” stand apart in the source; their conditions may differ. Ends that are not written are not given here.

Experiments:
[1] = Half-life of peptide 9S1R in serum; format: in vitro ADME; conditions: bovine, fetal bovine serum; peptide spiked into FBS, 37 °C, exposure 30 s, 5, 30, 60, 90 min; 75% ice cold acetonitrile precipitation; HPLC-QTOF MS, log2 EIC peak area vs time; read-out: half-life (t1/2) in fetal bovine serum
Description: The half-life of peptide 9S1R was determined by spiking the peptide into fetal bovine serum (FBS) for exposure times of 30 s and 5, 30, 60 or 90 min. During the exposure, FBS containing the spike peptides were incubated at 37 °C. The exposure was halted, and the peptide was extracted from FBS using protein precipitation. Protein precipitation was accomplished using 75% ice cold acetonitrile, followed by incubation at − 20 °C for one hour, and centrifugation at 9000 rpm for 10 min at […]. The supernatant was removed and saved for analysis. Peptide samples were analyzed by High pressure liquid chromatography (HPLC) mass spectrometry (MS) using an ultra-high-resolution Quadrupole Time of Flight (QTOF) instrument (Bruker maxis, Bruker Corporation, Billerica, MA, USA). HPLC mobile phase consisted of 18 MΩ H2O and HPLC grade formic acid and acetonitrile (> 99% purity, Fisher Scientific, Pittsburgh, PA, USA). The electrospray ionization (ESI) source was operated under the following conditions: positive ion mode; nebulizer pressure: 1.2 Bar; flow rate of drying gas (N2): 8 L/min; drying gas temperature: 200 °C; voltage between HV capillary and HV end-plate offset: 3000 V to – 500 V; mass range was set from 250 to 2900 m/z; and the quadrupole ion energy was 4.0 eV. […]

[2] = system: 4T1.2 cells; test: LC-MS detection of peptide internalization within cells; format: cell-based, mouse; conditions: 50uM, 2h, PBS wash, lysis, 3KDa filter, 3+ and 4+ forms
Description: Supplementary Fig 1: Detection of peptide internalization and stability within cells. (A) LC-MS Graph showing peak of peptide only spike at 1mg/ml final concentration (positive control) (B) Sample-1: 2 × 10^5 4T1.2 cells lysate was filtered through a 3KDa cut-off Amicon protein filters (Millipore) to get rid of proteins larger than 3KDa, followed by LC-MS detection (negative control). (C) Sample-2: 2 × 10^5 4T1.2 cells lysate (50ul) was mixed with the peptide at 1mg/ml final concentration and incubated for 30 mins followed by filtering through 3 KDa cut-off filter and LC-MS detection. (D) Sample-3: 50 ul of filtered cell lysate or Sample-1 was mixed with the peptide at 1mg/ml final concentration and incubated for 30 mins followed by LC-MS detection. (E) Sample-4: Cells were treated with 50uM of peptide and incubated for 2h followed by washing in PBS, lysis, passing through 3KDa protein filter, and detection by LC-MS. […] (G) Enlarged peaks from- C, Sample-2 with (H) extracted ion chromatogram (EIC) peaks of the detected peptide at the exact 3+ and 4+ valance forms (red circles). (I) Enlarged peaks from- E, Sample-4 with (J) extracted ion chromatogram (EIC) peaks of the detected peptide at the exact 3+ and 4+ valance forms (red circles).

[3] = system: 4T1.2-Luc TNBC tumors in Balb/c mice; test: 4T1.2-Luc orthotopic TNBC mouse model, unilateral tumors, eight IP doses; format: in vivo; conditions: trehalose only group, H&E scoring
From the text: (§1) The model was created by orthotopically injecting 4T1.2-Luc cells in the 4th mammary fat pad of Balb/c mice, with 1 × 10^5 cells per mouse. The cell line was developed by Dr. Cheryl L. Jorcyk and expresses the luciferase gene which serves as a luminescent indicator of gene expression or tumorigenesis, making the tumor cell traceable in vivo. Treatment started after the formation of palpable tumors and was detected by in vivo BLI (IVIS, Perkin Elmer) followed by randomization of the animals per group. For evaluating the effect of the peptides on this model, we carried out two separate studies. […]
Mice were anesthetized by isoflurane followed by measurement of the tumor length and width using a manual Vernier caliper. This was performed before every drug administration and the tumor volume was calculated using the formula (length × width^2)/2. Body weights were also measured before every dose of the drug.
Whole-body bioluminescence imaging (BLI) using the In Vivo Imaging System (IVIS® Spectrum, Perkin Elmer) was performed to detect in vivo tumor burden and metastasis, as evaluated by the bioluminescence signal from the 4T1.2-Luc cells. […] The images were analyzed by Perkin Elmer software and Aura Version 4.0.7 (Spectral instruments Imaging). […]

[4] = system: 4T1.2-Luc TNBC tumors in Balb/c mice; test: Pilot study, 4T1.2-Luc bilateral mammary tumor model, six IP doses; format: in vivo, mouse; conditions: study-1, trehalose only group
From the text: as §1, with “studies. The first pilot study involved a set of 4 mice per group with bilateral mammary tumors, which received six IP administration of PBS, 9S1R-NulloPT drug at 50 mg/kg, 100 mg/kg body weight or Trehalose, over a period of 2 weeks. The present study includes a set of 7–9 mice per group with unilateral tumors including the same groups as in the pilot study, but received a total of eight injections per mouse over a period of 2 weeks.” for “studies.”
Supplementary Fig 2: Detailed results from pilot first study with six IP administration of PBS (control), Trehalose, 50mg/kg NulloPT and 100 mg/kg NulloPT in TNBC mice. […] Treatment started after the formation of palpable tumors and was detected by an in vivo BLI system (IVIS, Perkin Elmer) followed by randomization of the animals per group. […]

## RRRRRWCMNW [9S1R]
[1]
  half-life: 8.7 min
[2]
  uptake of native untagged peptide inside cells by mass spectrometry: detected inside cells in two forms; also recorded: available inside the cells

## OC[C@H]1O[C@H](O[C@H]2O[C@H](CO)[C@@H](O)[C@H](O)[C@H]2O)[C@H](O)[C@@H](O)[C@@H]1O [Trehalose]
[3]
  immune cell infiltration or margin inflammation on the tumors: did not show any effect
[4]
  tumor size with trehalose alone: higher than control tumor size
